Each structure is given as a SMILES string.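 Following 48 hours of exposure in 96-well plates, responses at five concentrations were used to interpolate endpoints linearly. GI50 marks 50% less growth.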 The source made the active and inactive calls. No stated cut-off is given here; in the data, active = GI50 up to about 1.1 µM and inactive = higher.

Among the test systems are COLO 205; HCC 2998; HCT-116; K562; LOX IMVI; M14; MOLT-4; NCI-H226; NCI-H460; OVCAR-4; RXF 393; SF-268; SK-MEL-28; SNB-19; SNB-75; HCT-15.
Experiment in all cases: NCI anticancer screen, dose series, 48 h

With `O=C(Nc1ccccc1-c1nn(CO)c(=S)n(CO)c1=O)C(F)(F)F`, the GI50 in the assay on COLO 205, in the assay on HCC 2998, in the assay on HCT-116, in the assay with K562, in the assay with LOX IMVI and in the assay on M14 was > 100 µM (inactive) throughout. Further, the GI50 in the assay with MOLT-4, with NCI-H226, in the assay with NCI-H460, with OVCAR-4, in the assay with RXF 393 and in the assay with SF-268 was > 100 µM (inactive) throughout. For the same compound, the GI50 is > 100 µM (inactive) with SK-MEL-28, > 100 µM (inactive) in the assay with SNB-19 and 92.3 µM (inactive) in the assay with SNB-75.
With `COc1ccc(/C=c2\sc3n(c2=O)C(N)=C(C#N)C(c2ccc(OC)cc2)C=3c2nc3ccccc3[nH]2)cc1` (stereo unspecified), the GI50 in the assay on COLO 205 was 56.4 µM (inactive); in the assay with HCC 2998, 16.4 µM (inactive); with HCT-116 it was 27.2 µM (inactive); in the assay on HCT-15, 27.1 µM; in the assay with K562 it was > 100 µM (inactive); in the assay on LOX IMVI, 18 µM (inactive). Moreover, the GI50 with M14 is 77.1 µM (inactive); with MOLT-4 it was 29.1 µM (inactive); with NCI-H226, 27 µM (inactive); with NCI-H460, 18.6 µM (inactive); in the assay on OVCAR-4 it was > 100 µM (inactive); in the assay with SF-268, 42.1 µM (inactive). For the same compound, the values for the GI50 in the assay with SK-MEL-28, in the assay with SNB-19 and with SNB-75 were 18.5 µM (inactive), > 100 µM (inactive) and 29.6 µM (inactive), respectively.
Take `COc1ccc(/C=C2/CCCC/C2=N/O)cc1`: the GI50 in the assay on COLO 205 is > 100 µM (inactive); with HCC 2998, > 100 µM (inactive); in the assay with HCT-116 it was 87.7 µM (inactive); with HCT-15, over 100 µM; in the assay with K562, > 10 µM (inactive); in the assay on LOX IMVI it was 29.6 µM (inactive). Further, the GI50 with M14 was > 100 µM (inactive); in the assay with MOLT-4, 42.2 µM (inactive); in the assay on NCI-H460, > 100 µM (inactive); in the assay with OVCAR-4, 69.5 µM (inactive); with RXF 393 it was 40.8 µM (inactive); with SF-268, 57.9 µM (inactive). For the same compound, the GI50 in the assay with SK-MEL-28 was > 100 µM (inactive); with SNB-19, > 100 µM (inactive); in the assay on SNB-75 it was 31.6 µM (inactive).
As to `COc1cc(C2c3cc4c(cc3[C@@H](OCCN(C)C)C3COC(=O)[C@H]23)OCO4)cc(OC)c1O` (stereo partly specified), the GI50 in the assay with COLO 205 is 2.85 µM (inactive); in the assay on HCT-116, 1.04 µM (active); with HCT-15 it was 0.971 µM; in the assay with K562, 0.562 µM (active); in the assay on LOX IMVI it was 0.145 µM (active); in the assay with M14, 0.384 µM (active). Besides, the GI50 with MOLT-4 is 0.0165 µM (active); with NCI-H226, 0.0394 µM (active); in the assay with NCI-H460, 0.0127 µM (active); with OVCAR-4 it was 2.07 µM (inactive); with RXF 393 it was 0.396 µM (active); in the assay on SF-268, 0.33 µM (active). In addition, the results for the GI50 in the assay with SK-MEL-28, in the assay on SNB-19 and with SNB-75 were 0.993 µM (active), 0.207 µM (active) and 0.769 µM (active), respectively.
With `CC(C)C(Sc1nc(-c2ccccc2)c(-c2ccccc2)[nH]1)C(=O)N/N=C/c1ccc([N+](=O)[O-])cc1` (stereo unspecified), the GI50 in the assay on COLO 205 was 11.3 µM (inactive); in the assay with HCT-116, 14.5 µM (inactive); with HCT-15, 12.5 µM; with LOX IMVI, 11.6 µM (inactive); in the assay on M14, 7.33 µM (inactive); in the assay with MOLT-4, 1.93 µM (inactive). In addition, the GI50 is 17.9 µM (inactive) with NCI-H226; 9.46 µM (inactive) in the assay on NCI-H460; 16 µM (inactive) with OVCAR-4; 18.5 µM (inactive) in the assay with SF-268; 15.5 µM (inactive) in the assay on SK-MEL-28; 17.3 µM (inactive) with SNB-19. In addition, the GI50 in the assay on SNB-75 was 18.8 µM (inactive).
Consider `O=C1OC(c2ccccc2)=N/C1=C/C=C/c1ccco1`, for which the GI50 in the assay on COLO 205 is > 100 µM (inactive); in the assay with HCC 2998 it was > 100 µM (inactive); with HCT-15 it was over 100 µM; in the assay with K562, > 100 µM (inactive); with M14, > 100 µM (inactive); in the assay on MOLT-4, > 100 µM (inactive). Besides, the GI50 with OVCAR-4, in the assay on RXF 393, with SF-268, in the assay with SK-MEL-28 and with SNB-19 was > 100 µM (inactive) in each case.
`COc1cc(CC(C(=O)O)C(=O)O)c(OC)cc1CC(C(=O)O)C(=O)O`: the GI50 in the assay on COLO 205 was > 100 µM (inactive); in the assay with HCT-116, > 100 µM (inactive); in the assay on HCT-15, over 100 µM; with K562, > 100 µM (inactive); in the assay on LOX IMVI, > 100 µM (inactive); with M14, > 100 µM (inactive). Further, the GI50 with MOLT-4, with NCI-H226, in the assay on NCI-H460, in the assay on OVCAR-4, in the assay on RXF 393 and in the assay with SF-268 was > 100 µM (inactive) in each case. For the same compound, the GI50 in the assay on SNB-19 and in the assay on SNB-75 was > 100 µM (inactive) in each case.
With `COC12CCC(=O)C=C1c1ccccc1N2C(C)=O` (stereo unspecified), the GI50 with COLO 205 was > 100 µM (inactive); in the assay with HCC 2998 it was > 100 µM (inactive); with HCT-116, > 100 µM (inactive); in the assay with HCT-15, over 100 µM; in the assay on K562, > 100 µM (inactive); in the assay with MOLT-4 it was > 100 µM (inactive). The GI50 in the assay with NCI-H460, in the assay with OVCAR-4, with RXF 393, in the assay with SK-MEL-28, in the assay on SNB-19 and in the assay on SNB-75 was > 100 µM (inactive) each time.
For `Cc1nn(C)cc1P(=S)(c1ccccc1)c1ccccc1`, the GI50 with COLO 205 is 48.5 µM (inactive); in the assay on HCC 2998, > 100 µM (inactive); with HCT-116 it was 31.8 µM (inactive); in the assay on HCT-15, 32.4 µM; with K562, 20.6 µM (inactive); in the assay on LOX IMVI it was 30.3 µM (inactive). For the same compound, the GI50 in the assay with M14 was 71.6 µM (inactive); in the assay with MOLT-4, 30.3 µM (inactive); in the assay with NCI-H460 it was 40.5 µM (inactive); in the assay on OVCAR-4, > 100 µM (inactive); with RXF 393 it was > 100 µM (inactive); in the assay with SF-268, 81.8 µM (inactive). For the same compound, the GI50 in the assay on SK-MEL-28 was > 100 µM (inactive); with SNB-19, > 100 µM (inactive); in the assay on SNB-75 it was 24.4 µM (inactive).
Take `COc1ccc2nc(NC(=O)C(=O)NNC(=O)c3ccncc3)sc2c1`: the GI50 was > 100 µM (inactive) in the assay with COLO 205; > 100 µM (inactive) in the assay with HCC 2998; > 100 µM (inactive) in the assay with HCT-116; over 100 µM with HCT-15; > 100 µM (inactive) in the assay on K562; > 100 µM (inactive) in the assay on LOX IMVI. The GI50 in the assay with M14, in the assay with NCI-H226, in the assay with NCI-H460, in the assay on OVCAR-4, in the assay on RXF 393 and in the assay on SF-268 was > 100 µM (inactive) each time. The GI50 in the assay on SK-MEL-28, with SNB-19 and in the assay with SNB-75 was > 100 µM (inactive) in each case.
Take `O=C1c2ccccc2NC1(c1ccccc1)c1c(-c2ccccc2)[nH]c2ccccc12` (stereo unspecified): the GI50 was 6.12 µM (inactive) in the assay on COLO 205; 36.6 µM (inactive) in the assay with HCC 2998; 7.28 µM (inactive) in the assay with HCT-116; 13.4 µM with HCT-15; 8.32 µM (inactive) in the assay on K562; 22.1 µM (inactive) with M14. In addition, the GI50 was 2.91 µM (inactive) with MOLT-4; 17.5 µM (inactive) in the assay with NCI-H460; 8.99 µM (inactive) with OVCAR-4; 6.22 µM (inactive) in the assay on RXF 393; 37.5 µM (inactive) in the assay with SK-MEL-28; 37.3 µM (inactive) with SNB-19. Moreover, the GI50 with SNB-75 was 24.7 µM (inactive).
Consider `CCCCCCCCCc1cc(=O)c2ccc(O)cc2o1`, for which the GI50 in the assay on COLO 205 was 51.4 µM (inactive); in the assay on HCT-116, 38.5 µM (inactive); in the assay with K562, 14.5 µM (inactive); in the assay with LOX IMVI it was 40.2 µM (inactive); in the assay on M14, > 100 µM (inactive); with MOLT-4, 23.6 µM (inactive). Moreover, the GI50 in the assay on NCI-H226 is 12.6 µM (inactive); in the assay with NCI-H460, 57.8 µM (inactive); in the assay on OVCAR-4, 22.3 µM (inactive); in the assay on RXF 393 it was 31.4 µM (inactive); with SF-268, 44.8 µM (inactive); in the assay with SK-MEL-28 it was > 100 µM (inactive). For the same compound, the GI50 in the assay with SNB-19 was 44.6 µM (inactive); in the assay on SNB-75, 17.2 µM (inactive).
Consider `Cc1nc2c(ccc3ncccc32)[nH]1`, for which the GI50 in the assay with COLO 205 is > 100 µM (inactive); with HCC 2998, > 100 µM (inactive); with HCT-15, over 100 µM; in the assay on K562 it was > 100 µM (inactive); in the assay on LOX IMVI, > 100 µM (inactive); with M14 it was > 100 µM (inactive). Also, the GI50 in the assay on MOLT-4, in the assay on NCI-H460, in the assay with OVCAR-4, in the assay on RXF 393, in the assay with SF-268 and in the assay with SK-MEL-28 was > 100 µM (inactive) each time. Besides, the GI50 in the assay with SNB-19 and with SNB-75 was > 100 µM (inactive) in each case.
On to `O=C1c2c(nc3ccccc3c2-c2ccccc2)CN1Nc1ccccc1`, for which the GI50 in the assay on COLO 205, in the assay with HCC 2998, in the assay on HCT-116, with K562, in the assay on LOX IMVI and in the assay with M14 was > 100 µM (inactive) throughout. In addition, the GI50 in the assay on MOLT-4, in the assay with NCI-H226, with OVCAR-4 and in the assay with SF-268 was > 100 µM (inactive) in each case.
With `CCCCN(C)CC(C(C)=O)C(c1ccccc1)c1c(O)c2ccccc2oc1=O` (stereo unspecified), the GI50 in the assay with COLO 205 was > 100 µM (inactive); in the assay with HCT-116, > 100 µM (inactive); in the assay with HCT-15 it was over 100 µM; in the assay on K562 it was > 100 µM (inactive); in the assay on LOX IMVI, > 100 µM (inactive); in the assay on M14, > 100 µM (inactive). Also, the GI50 with MOLT-4, in the assay with NCI-H226, in the assay with NCI-H460, in the assay with OVCAR-4, in the assay with RXF 393 and in the assay with SF-268 was > 100 µM (inactive) each time. Further, the GI50 in the assay with SK-MEL-28 is > 100 µM (inactive); with SNB-19, > 100 µM (inactive); with SNB-75, 65.2 µM (inactive).

For the origin of these results see ChEMBL document CHEMBL1201862, “PubChem BioAssay data set” (2004).
